# Publication PMC5681435, “Differential Regulation of G1 CDK Complexes by the Hsp90-Cdc37 Chaperone System” (Cell Reports, 2017)
# Entries after “also recorded” stand apart in the source; their conditions may differ.
# What was measured:
# CDK4-cyclin D = test system: CDK4-cyclin D; parameters: method as in Sherr et al., 2016; conditions: ref Sherr et al., 2016; read-out: IC50 against CDK4-cyclin D; cited from earlier work
# CDK6-cyclin D = test system: CDK6-cyclin D; parameters: method as in Sherr et al., 2016; conditions: ref Sherr et al., 2016; read-out: IC50 against CDK6-cyclin D; cited from earlier work
# CDK4-Cdc37 complex = target: T1, CDK4-Cdc37 complex (Homo sapiens, UniProt P11802); type: binding; conditions: HTRF competition, 8 nM GSTCDK4, 150 nM C-Avi Cdc37
# T1 construct: Full length human CDK4 and CDK6 with an N-terminal; made in house; host or cells: GSTCDK4: Sf9 insect cells; Cdc37: E. coli
# [1] = target: B-Raf^V600E kinase domain; parameters: method as in Polier et al., 2013; conditions: isothermal titration calorimetry; ref Polier et al., 2013; read-out: Affinity of Cdc37-B-Raf^V600E kinase domain interaction; cited from earlier work
# CDK4 = target: T2, CDK4 (Homo sapiens, UniProt P11802); test: HTRF direct binding to GSTCDK4; conditions: GSTCDK4 10 nM, read-out: Dissociation constant for binding to CDK4
# T2 construct: Full length human CDK4 and CDK6 with an N-terminal; made in house; host or cells: Sf9 insect cells (baculovirus, MultiBac)
# Protocol: (§1) exchange chromatography (HiTrap Q, GE Healthcare). Protein concentrations were determined by NanoDrop2000 UV-Vis Spectrophotometer (Thermo Scientific) or using a Shimadzu UV1800 spectrophotometer. A representative SDS-polyacrylamide gel stained with silver is shown in Figure S4 to illustrate the purity of the GSTCDK4 and GSTCDK6 […]
# (§2) Avi-tagged proteins (Cdc37, p16INK4a, p16INK4a mutants, Kcyclin and Vcyclin) were biotinylated to provide an affinity tag for the streptavidin-tagged XL665 dye. A substantial amount of biotinylated protein was purified from the recombinant E. coli cells as a result of endogenous BirA activity. Proteins were further modified by incubating 40 µM of the Avi-tagged protein with 10 µg BirA in biotinylation buffer (50 mM Bicine pH 8.3, 10 mM ATP, 10 mM MgOAc, 50 µM d-biotin) at 30°C for 60 minutes. […] The extent of protein biotinylation was monitored by pull downs using High Capacity NeutrAvidin® Agarose Resin (Thermo […]
# (§3) To assemble the various complexes, 15 µg of Cdc37 was mixed with a molar equivalent of CDK6, and incubated for 1hour at 4 °C. […] The reactions were stopped by addition of 2 x LDS buffer and analysed by SDS-PAGE and subsequent western blotting using an anti-phosphorylated S780 antibody […]
# (§4) Homogenous time-resolved fluorescence (HTRF) […]
# CDK6 = target: T3, CDK6 (Homo sapiens, UniProt Q00534); test: HTRF direct binding to GSTCDK6; conditions: GSTCDK6 10 nM, read-out: Dissociation constant for binding to CDK6
# T3 construct: Full length human CDK4 and CDK6 with an N-terminal; made in house; host or cells: Sf9 insect cells (baculovirus, MultiBac)
# Protocol: as §1, §2, §3, §4
# CDK2 = target: T4, CDK2 (Homo sapiens, UniProt P24941); test: HTRF direct binding to GSTCDK2; conditions: GSTCDK2 25 nM
# T4 construct: made in house; host or cells: E. coli BL21STAR(DE3)
# Protocol: as §1, §2, §3, §4
# [2] = target: T5, CDK4-cyclin D1/D3 complexes (Homo sapiens, UniProt P11802); test: HTRF association of Avi-tagged Cdc37 with GSTCDK4-cyclin D complexes with or without p21M/p27M; type: binding; conditions: ternary complex, Figure 4E
# T5 construct: Full length human CDK4 and CDK6 with an N-terminal; made in house; host or cells: Sf9 insect cells (co-expression)
# Protocol: To find out whether the CIP/KIP CKIs can cooperate with cyclin D isoforms to generate a stable ternary CDK4 complex that is resistant to displacement by Cdc37, we next purified GSTCDK4-cyclin D1 and D3 and GSTCDK6-cyclin D1 and D3 complexes assembled in insect cells, incubated them with excess p21M or p27M, and isolated the complexes by size-exclusion chromatography. We then used the HTRF assay to measure the association of Avi-tagged Cdc37 with GSTCDK4 and GSTCDK6, which were presented unpartnered, in a binary complex with cyclin D1 or cyclin D3, or in a ternary complex with cyclin D1 or D3 and p21M, or p27M. As shown previously, Cdc37 binds to monomeric CDK4 (Figures 4C and 4E, blue lines) and effectively displaces cyclin D1 or cyclin D3 (Figures 4C and 4E, red lines). […]
# as §1
# Avi-tagged proteins (Cdc37, p16INK4a, p16INK4a mutants, Kcyclin and Vcyclin) were biotinylated to provide an affinity tag for the streptavidin-tagged XL665 dye. […] The extent of protein biotinylation was monitored by pull downs using High Capacity NeutrAvidin® Agarose Resin (Thermo […]
# T1 sequence (P11802 whole entry, one chain of several): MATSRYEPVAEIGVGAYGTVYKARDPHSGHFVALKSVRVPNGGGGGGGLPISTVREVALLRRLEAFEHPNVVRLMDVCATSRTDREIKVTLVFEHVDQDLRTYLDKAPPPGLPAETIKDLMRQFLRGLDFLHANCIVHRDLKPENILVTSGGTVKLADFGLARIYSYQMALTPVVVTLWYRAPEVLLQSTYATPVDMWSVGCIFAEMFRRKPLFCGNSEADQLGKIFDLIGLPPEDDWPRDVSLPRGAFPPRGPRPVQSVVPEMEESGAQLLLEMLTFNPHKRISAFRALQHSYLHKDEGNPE
# T3 sequence (Q00534 whole entry): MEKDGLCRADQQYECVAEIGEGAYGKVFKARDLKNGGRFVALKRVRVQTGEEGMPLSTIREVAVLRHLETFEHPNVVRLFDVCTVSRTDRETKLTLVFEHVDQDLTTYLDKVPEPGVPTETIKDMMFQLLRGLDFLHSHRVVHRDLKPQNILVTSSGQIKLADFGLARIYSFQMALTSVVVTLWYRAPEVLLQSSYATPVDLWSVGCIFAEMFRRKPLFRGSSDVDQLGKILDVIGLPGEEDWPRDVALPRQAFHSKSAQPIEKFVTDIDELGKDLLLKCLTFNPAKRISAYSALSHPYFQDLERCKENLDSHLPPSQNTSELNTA
# T2 sequence (P11802 whole entry): as the sequence (P11802 whole entry, one chain of several) above
# T5 sequence (P11802 whole entry): as the sequence (P11802 whole entry, one chain of several) above
# T5 sequence (P30281 whole entry partner): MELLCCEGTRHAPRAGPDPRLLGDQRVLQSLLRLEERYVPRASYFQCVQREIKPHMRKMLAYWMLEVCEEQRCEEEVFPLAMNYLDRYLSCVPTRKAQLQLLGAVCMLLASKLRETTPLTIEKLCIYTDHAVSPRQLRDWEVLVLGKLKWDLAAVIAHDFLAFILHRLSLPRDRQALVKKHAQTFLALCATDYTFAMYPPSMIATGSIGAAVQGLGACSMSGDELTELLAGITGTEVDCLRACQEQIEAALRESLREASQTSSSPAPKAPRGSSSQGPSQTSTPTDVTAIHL
Compound,IC50 (CDK4-cyclin D) [nM],IC50 (CDK6-cyclin D) [nM],Displacement of Cdc37 from CDK4-Cdc37 complex (in words) (CDK4-Cdc37 complex),other results
"CN(C)C(=O)c1cc2cnc(Nc3ccc(N4CCNCC4)cn3)nc2n1C1CCCC1 [LEE011, ribociclib]",10,39,–,–
"CCN1CCN(Cc2ccc(Nc3ncc(F)c(-c4cc(F)c5nc(C)n(C(C)C)c5c4)n3)nc2)CC1 [LY2835219, abemaciclib]",2,5,unable to derive reproducible inhibition curves,–
"CC(=O)c1c(C)c2cnc(Nc3ccc(N4CCNCC4)cn3)nc2n(C2CCCC2)c1=O [PD0332991, palbociclib]",11,15,–,–
"Cdc37: human Hsp90 adaptor co-chaperone Cdc37, recombinant, Avi- or FLAG-tagged",–,–,–,Kd [1]: ~200 nM; Kd (CDK4): 92 ± 29 nM; Kd (CDK6): 460 ± 230 nM; Binding to CDK2 (CDK2): not bind to CDK2; also recorded: no interaction could be detected
p21M: p21CIP1 fragment residues 1–87,–,–,can displace,Effect of addition to CDK4-cyclin D3 on Cdc37 binding [2]: prevent Cdc37 from binding
p21S: p21CIP1 fragment residues 9–87,–,–,can displace,–
